Data as given in PMC8891108, “Development and characterization of anti-fibrotic natural compound similars with improved effectivity” (Basic Research in Cardiology, 2022).

Key:
Type in all cases: cell-based
[1] = test system: human cardiac fibroblasts (HCF); assay: BrdU incorporation, HCF proliferation (first screen); details: for EC50: Homo sapiens, Cardiac fibroblast, HCF, 24 h treatment, read-out: Effective conc. (BrdU), EC50 by BrdU assay
Description: 96-well plates (TPP) were coated with 0.1% gelatine and seeded with 7500 HCFs/well. After 72 h, medium was exchanged with serial dilutions of compounds in FGM-3 + 1.6% DMSO + 1% 5-bromo-2′-deoxyuridine (BrdU, Roche, #11647229001), prepared in additional plates. After 24 h, cells were washed twice with DPBS (Gibco, #14190144) before incubation with anti-BrdU:POD (Roche, #11647229001) for 60 min (RT). Readout was performed by measurement of absorbance at 370 nm + 490 nm in a Synergy HT (BioTek) microplate reader. […] As validation, HCF were seeded as before, but treated with serial dilutions of compounds after 24 h. […] After 60 min of incubation (37 °C, in the dark), absorbance at 450 nm + 630 nm was measured maintaining 37 °C and analysed as described before.
To assess screening quality, quality acceptance criteria Z′ (Z prime), SW (signal window), S:B (signal-to-background), S:N (signal-to-noise) were determined following. Average Z′ ≥ 0.5 and SW ≥ 2 were required to accept the screening overall, whereas single plates were rejected from analysis if Z′ < 0.3 or SW < 1.

[2] = test system: human living myocardial slices; assay: Ex vivo human living myocardial slices, qPCR gene expression; details: 48 h
Excerpt: Myocardial slices were generated from human left ventricular heart specimens taken from failing hearts at the time of transplantation. Tissue was obtained from the Clinic for Cardiac, Thoracic, Transplant and Vascular Surgery at the Hannover Medical School (MHH), Hannover, Germany. Patients provided informed consent to the scientific use of the explanted tissue.
The preparation and culture of myocardial slices has been described before. Briefly, human heart specimens were sliced into 300 µm thick slices using a vibrating microtome (Campden Instruments, #7000smz-2) while in ice-cold 30 mM 2,3-butanedione monoxime + 1 mM D-glucose + 10 mM HEPES + 6 mM KCl + 140 mM NaCl + 1 mM MgCl2 + 1.8 mM CaCl2 (cardioplegic Tyrode’s solution), before being trimmed into approx. 7 × 7 mm pieces of aligned muscle fibres.
After 48 h in culture, myocardial slices were frozen in liquid nitrogen and stored at −80 °C for further gene expression analysis.
(§1) A mix of forward and reverse primer pairs (10 µM, Eurofins) or 10 × Quantitect Primer Assay (Qiagen, #249900) was used for mRNA. To measure miRNA, RNA was reverse-transcribed using the miRNA TaqMan MicroRNA Reverse Transcription Kit (Applied Biosystems, #4366597) with specific miRNA RT primers (ThermoFisher, #4427975). cDNA was diluted 1:3 with dH2O before qPCR with Absolute Blue qPCR Mix (Abgene, #AB-4136/B) and the specific Taqman probes (ThermoFisher, #4427975). Runs were performed in ViiA7 (Applied Biosystems) or QuantStudio 7 Flex (Applied Biosystems). Real-time qPCR data were analysed as described elsewhere.

[3] = test system: human cardiac fibroblasts (HCF); assay: TaqMan Array Human MicroRNA Cards, miRNA deregulation in HCF
Description: PCR amplification of array cards was performed as instructed. After quality control of all real-time qPCRs, cT values were exported and all runs were merged into a single excel file. Recommended baseline correction using relative thresholds to correct for varying reconstitution rates of different Taqman probes was not performed. Low-expressed miRNAs with cT > 32 in more than 1 replicate per treatment were excluded from analysis, before samples were normalized to column mean. Multiple unpaired t tests were performed using GraphPad Prism, deregulations were accepted as discoveries if FDR ≤ 1% (using BKY adjustment). As miRNA identifiers were based on miRbase v14, we converted them to the latest v22 for further analysis using miRBaseConverter. 747 sequences could be converted correctly, while the remaining miRNAs were removed from miRbase due to incorrect annotation (e.g. the sequences of hsa-miR-886-3p and hsa-miR-886-5p are part of VTRNA2-1 [44]) or no evidence of human expression.

[4] = test system: human cardiac fibroblasts (HCF); assay: nCounter Fibrosis Panel mRNA profiling of HCF; details: 24 h treatment
Description: Briefly, 100 ng/5µL isolated total RNA of HCF after 24 h treatment (RIN > 7.5 and […] > 88%) was mixed with the hybridization Master Mix and incubated at 65 °C for 20 h before loading on a nCounter® FLEX (Department of Pathology, Hannover Medical School, Germany). All run files (.RCC) were compiled into a single experiment using the nSolver analysis software. […] Reference genes for normalization were determined by nSolver using all samples (ACAD9, ARMH3, CNOT10, GUSB, MTMR14, NOL7, NUBP1, PGK1, PPIA, RPLP0, see supplemental Fig. 4e, f). We then used the Advanced analysis plugin (v2.0.115) including LOT as confounder variable and BY adjusted p value < 0.05 for identification of central deregulated pathways. Additionally, normalized counts were further analysed with GraphPad Prism using multiple unpaired t tests with FDR ≤ 5% after BKY adjustment and log2 |FC| ≥ 1.

[5] = test system: human cardiac fibroblasts (HCF); assay: In vitro migration (scratch) assay of HCF; details: 10 × EC50
Description: To assess migrative capabilities of HCF, cells were stained with 1:1000 1,1′-Dioctadecyl-3,3,3′,3′-Tetramethylindotricarbocyanine Iodide (DIR′) dye in FGM-3 for 20 min at 37 °C. Cells were washed with DPBS and seeded into 0.1% gelatine-coated 96-well plates at 30,000 cells per well. […] After 17 h and 24 h, plates were imaged again. Rate of migration was determined using the migrative index (MI).

[6] = test system: human cardiac fibroblasts (HCF); assay: miRNA mimic / inhibitor transfection before compound treatment, WST-1 readout
Description: as §1
To determine whether these miRNAs are part of and essential to the mechanism of action of the compounds, we transfected HCF with miR mimics or inhibitors of the miRNA candidates prior to compound treatment. If a miRNA is essential for the compounds’ mechanism, we would expect the absence of anti-proliferative effects after inhibition of this miRNA, whereas anti-proliferative effects would remain if the miRNA is rather a downstream element of the compound response.

[7] = test system: human cardiac fibroblasts (HCF); assay: Global RNA sequencing of treated HCF
Excerpt: The NEBNext Ultra II Directional RNA Kit was used to prepare the samples (the same as for the nCounter® Fibrosis Panel, see above) for subsequent deep sequencing on a NovaSeq PE50 (Illumina) at HZI Braunschweig (Germany). Reads were trimmed and mapped to the human genome hg38.79 using RNA STAR (v2.4.2a, [11]) by HZI Braunschweig. RAW read counts were further analysed on Galaxy (v3.38.3, usegalaxy.org, [2]) using the limma-voom method. Low-expressed transcripts without more than 0.25 CPM (counts per million reads mapped) in at least 3 samples (42,079 of 61,043) were filtered out, and TMM (trimmed mean of M values) was the method used to normalise library sizes. Changes in transcript expression were considered significant if FDR [4] ≤ 0.05 and log2 |FC| ≥ 1.3.

[8] = mean of DMSO minus mean of treatment

Compound: O[C@H]1[C@H]2c3cc4c(cc3CN3CCC(=C[C@@H]1O)[C@H]23)OCO4 [Lycorine, lycorine]
- EC50 [1]: 2.8 µM
- FAP expression (qPCR) [2]: not
- MMP2 expression (qPCR) [2]: not
- Mean of treatment, hsa-miR-30e-3p-000422 ([3]; cT normalized to column mean): -5.454
- Mean of treatment, hsa-miR-16-000391 ([3]; cT normalized to column mean): -6.115
- Mean of treatment, hsa-miR-28-3p-002446 ([3]; cT normalized to column mean): -2.622
- Mean of treatment, hsa-miR-29a-002112 ([3]; cT normalized to column mean): -7.899
- Mean of treatment, hsa-miR-30a-3p-000416 ([3]; cT normalized to column mean): -5.962
- Mean of treatment, hsa-miR-31#-002113 ([3]; cT normalized to column mean): -6.203
- Mean of treatment, hsa-miR-31-002279 ([3]; cT normalized to column mean): -7.455
- Mean of treatment, hsa-miR-34a#-002316 ([3]; cT normalized to column mean): -2.58
- Mean of treatment, hsa-miR-125a-5p-002198 ([3]; cT normalized to column mean): -3.201
- Mean of treatment, hsa-miR-132-000457 ([3]; cT normalized to column mean): -3.872
- Mean of treatment, hsa-miR-140-3p-002234 ([3]; cT normalized to column mean): -1.119
- Mean of treatment, hsa-miR-151-3p-002254 ([3]; cT normalized to column mean): -5.192
- Mean of treatment, hsa-miR-155-002623 ([3]; cT normalized to column mean): -3.701
- Mean of treatment, hsa-miR-186-002285 ([3]; cT normalized to column mean): -4.072
- Mean of treatment, hsa-miR-191-002299 ([3]; cT normalized to column mean): -6.639
- Mean of treatment, hsa-miR-193b-002367 ([3]; cT normalized to column mean): -4.73
- Mean of treatment, hsa-miR-222#-002097 ([3]; cT normalized to column mean): -3.599
- Mean of treatment, hsa-miR-222-002276 ([3]; cT normalized to column mean): -9.167
- Mean of treatment, hsa-miR-331-000545 ([3]; cT normalized to column mean): -4.63
- Mean of treatment, hsa-miR-339-3p-002184 ([3]; cT normalized to column mean): -0.6811
- Mean of treatment, hsa-miR-342-3p-002260 ([3]; cT normalized to column mean): -3.089
- Mean of treatment, hsa-miR-376a-000565 ([3]; cT normalized to column mean): -1.759
- Mean of treatment, hsa-miR-376c-002122 ([3]; cT normalized to column mean): -3.539
- Mean of treatment, hsa-miR-409-3p-002332 ([3]; cT normalized to column mean): -4.891
- Mean of treatment, hsa-miR-625#-002432 ([3]; cT normalized to column mean): -4.373
- Mean of treatment, hsa-miR-1274B-002884 ([3]; cT normalized to column mean): -9.621
- Difference / ΔCT, hsa-miR-30e-3p-000422 [3, 8]: 0.9633
- Difference / ΔCT, hsa-miR-16-000391 [3, 8]: 0.8517
- Difference / ΔCT, hsa-miR-28-3p-002446 [3, 8]: 0.8307
- Difference / ΔCT, hsa-miR-29a-002112 [3, 8]: 0.8647
- Difference / ΔCT, hsa-miR-30a-3p-000416 [3, 8]: 0.8856
- Difference / ΔCT, hsa-miR-31#-002113 [3, 8]: 0.5519
- Difference / ΔCT, hsa-miR-31-002279 [3, 8]: 0.598
- Difference / ΔCT, hsa-miR-34a#-002316 [3, 8]: 0.8439
- Difference / ΔCT, hsa-miR-125a-5p-002198 [3, 8]: 0.6283
- Difference / ΔCT, hsa-miR-132-000457 [3, 8]: 1.328
- Difference / ΔCT, hsa-miR-140-3p-002234 [3, 8]: 0.7567
- Difference / ΔCT, hsa-miR-151-3p-002254 [3, 8]: 0.604
- Difference / ΔCT, hsa-miR-155-002623 [3, 8]: 1.386
- Difference / ΔCT, hsa-miR-186-002285 [3, 8]: 1.039
- Difference / ΔCT, hsa-miR-191-002299 [3, 8]: 0.8243
- Difference / ΔCT, hsa-miR-193b-002367 [3, 8]: 0.5576
- Difference / ΔCT, hsa-miR-222#-002097 [3, 8]: 1.599
- Difference / ΔCT, hsa-miR-222-002276 [3, 8]: 0.8654
- Difference / ΔCT, hsa-miR-331-000545 [3, 8]: 0.6606
- Difference / ΔCT, hsa-miR-339-3p-002184 [3, 8]: 0.7187
- Difference / ΔCT, hsa-miR-342-3p-002260 [3, 8]: 0.7149
- Difference / ΔCT, hsa-miR-376a-000565 [3, 8]: 1.019
- Difference / ΔCT, hsa-miR-376c-002122 [3, 8]: 0.5396
- Difference / ΔCT, hsa-miR-409-3p-002332 [3, 8]: 0.9354
- Difference / ΔCT, hsa-miR-625#-002432 [3, 8]: 0.6889
- Difference / ΔCT, hsa-miR-1274B-002884 [3, 8]: -0.4297
- deregulation of fibrosis panel genes / pathways [4]: less deregulation (fold-change) compared to the other treatments

Compound: COC(=O)C[C@](O)(CCCC(C)(C)O)C(=O)O[C@@H]1C(OC)=C[C@]23CCCN2CCc2cc4c(cc2[C@H]13)OCO4 [lyco-s, homoharringtonine]
- inhibitory activity on HCF proliferation ([1]; BrdU incorporation): showed inhibitory activity
- EC50 fold lower than the EC50 of lycorine ([1]; HCF proliferation): over 100 fold
- EC50 [1]: 0.034 µM
- FAP expression (qPCR) [2]: significant down-regulation
- MMP2 expression (qPCR) [2]: significant down-regulation
- HCF migration [5]: repressed migration only after several hours
- Mean of treatment, hsa-miR-28-3p-002446 ([3]; cT normalized to column mean): -2.759
- Mean of treatment, hsa-miR-342-3p-002260 ([3]; cT normalized to column mean): -3.581
- Difference / ΔCT, hsa-miR-28-3p-002446 [3, 8]: 0.9679
- Difference / ΔCT, hsa-miR-342-3p-002260 [3, 8]: 1.208
- anti-proliferative effect after inhibition of hsa-miR-132-3p [6]: protected
- anti-proliferative effect after overexpression of hsa-miR-125a-5p [6]: partially protected against the anti-proliferative effect
- deregulation of fibrosis panel genes / pathways [4]: repressed genes related to endothelial mesenchymal transition (EMT), ECM homeostasis as well as collagen biosynthesis
- downregulation of high- to medium-expressed collagen isoforms [7]: approx. 90%
- expression of FN1, PTN and BGN [7]: significantly downregulated
- differentially expressed genes (DEGs) vs DMSO control ([7]; RNA sequencing): over 4000
- expression of collagen isoforms ([7]; top 20 expressed isoforms): approx. tenfold
